Columns and labels:
Type in all cases: functional
Fusobacterium mortiferum = assay: Antimicrobial activity in Fusobacterium mortiferum by CLSI agar dilution method in presence of clavulanate
Eggerthella lenta = assay: Antimicrobial activity in Eggerthella lenta by CLSI agar dilution method in presence of clavulanate
Clostridium sp. = assay: Antimicrobial activity in Clostridium sp. by CLSI agar dilution method in presence of clavulanate
Cutibacterium acnes = assay: Antimicrobial activity in Propionibacterium acnes by CLSI agar dilution method in presence of clavulanate
Parvimonas micra = assay: Antimicrobial activity in Micromonas micros by CLSI agar dilution method in presence of clavulanate
Prevotella veroralis = assay: Antimicrobial activity in Prevotella veroralis by CLSI agar dilution method in presence of clavulanate
Prevotella intermedia = assay: Antimicrobial activity in Prevotella intermedia by CLSI agar dilution method in presence of clavulanate
Thomasclavelia ramosa = assay: Antimicrobial activity in Clostridium ramosum by CLSI agar dilution method in presence of clavulanate
[1] = tested on: Prevotella melaninogenica; assay: Antimicrobial activity in Prevotella melaninogenica by CLSI agar dilution method in presence of clavulanate
Clostridioides difficile = assay: Antimicrobial activity in Clostridium difficile by CLSI agar dilution method in presence of clavulanate
Hoylesella oralis = assay: Antimicrobial activity in Prevotella oralis group by CLSI agar dilution method in presence of clavulanate
Prevotella sp. = assay: Antimicrobial activity in Prevotella sp.by CLSI agar dilution method in presence of clavulanate
Bacteroides ovatus = assay: Antimicrobial activity in Bacteroides ovatus by CLSI agar dilution method in presence of clavulanate
Prevotella denticola = assay: Antimicrobial activity in Prevotella denticola by CLSI agar dilution method in presence of clavulanate
Anaerococcus prevotii = assay: Antimicrobial activity in Anaerococcus prevotii by CLSI agar dilution method in presence of clavulanate
[2] = tested on: Paraclostridium bifermentans; assay: Antimicrobial activity in Clostridium bifermentans by CLSI agar dilution method in presence of clavulanate
[3] = tested on: Peptostreptococcus anaerobius; assay: Antimicrobial activity in Peptostreptococcus anaerobius by CLSI agar dilution method in presence of clavulanate
Fusobacterium nucleatum = assay: Antimicrobial activity in Fusobacterium nucleatum by CLSI agar dilution method in presence of clavulanate
Clostridium cadaveris = assay: Antimicrobial activity in Clostridium cadaveris by CLSI agar dilution method in presence of clavulanate
[4] = tested on: Bacteroides thetaiotaomicron; assay: Antimicrobial activity in Bacteroides thetaiotaomicron by CLSI agar dilution method in presence of clavulanate
[Clostridium] innocuum = Antimicrobial activity in Clostridium innocuum by CLSI agar dilution method in presence of clavulanate
Phocaeicola vulgatus = assay: Antimicrobial activity in Bacteroides vulgatus by CLSI agar dilution method in presence of clavulanate
Lactobacillus = assay: Antimicrobial activity in Lactobacillus by CLSI agar dilution method in presence of clavulanate
Prevotella bivia = assay: Antimicrobial activity in Prevotella bivia by CLSI agar dilution method in presence of clavulanate
Prevotella salivae = assay: Antimicrobial activity in Prevotella salivae by CLSI agar dilution method in presence of clavulanate; details: Segatella salivae
Anaerococcus tetradius = assay: Antimicrobial activity in Anaerococcus tetradius by CLSI agar dilution method in presence of clavulanate
Prevotella nigrescens = assay: Antimicrobial activity in Prevotella nigrescens by CLSI agar dilution method in presence of clavulanate
Clostridium perfringens = assay: Antimicrobial activity in Clostridium perfringens by CLSI agar dilution method in presence of clavulanate
Bacteroides fragilis = assay: Antimicrobial activity in Bacteroides fragilis by CLSI agar dilution method in presence of clavulanate
Clostridium butyricum = assay: Antimicrobial activity in Clostridium butyricum by CLSI agar dilution method in presence of clavulanate
Actinomyces = assay: Antimicrobial activity in Actinomyces by CLSI agar dilution method in presence of clavulanate
Prevotella buccae = assay: Antimicrobial activity in Prevotella buccae by CLSI agar dilution method in presence of clavulanate; details: Segatella buccae
[5] = tested on: Porphyromonas asaccharolytica; assay: Antimicrobial activity in Porphyromonas asaccharolytica by CLSI agar dilution method in presence of clavulanate
[6] = tested on: Fusobacterium necrophorum; assay: Antimicrobial activity in Fusobacterium necrophorum by CLSI agar dilution method in presence of clavulanate
Bifidobacterium = assay: Antimicrobial activity in Bifidobacterium by CLSI agar dilution method in presence of clavulanate
Hoylesella loescheii = assay: Antimicrobial activity in Prevotella loescheii by CLSI agar dilution method in presence of clavulanate
[7] = tested on: Enterocloster clostridioformis; assay: Antimicrobial activity in Clostridium clostridioforme by CLSI agar dilution method in presence of clavulanate
Bacteroides uniformis = assay: Antimicrobial activity in Bacteroides uniformis by CLSI agar dilution method in presence of clavulanate
[8] = tested on: Paeniclostridium sordellii; assay: Antimicrobial activity in Clostridium sordellii by CLSI agar dilution method in presence of clavulanate; details: Paraclostridium sordellii
Clostridium tertium = assay: Antimicrobial activity in Clostridium tertium by CLSI agar dilution method in presence of clavulanate
Prevotella bergensis = assay: Antimicrobial activity in Prevotella bergensis by CLSI agar dilution method in presence of clavulanate; details: Hallella bergensis
Prevotella corporis = assay: Antimicrobial activity in Prevotella corporis by CLSI agar dilution method in presence of clavulanate
Prevotella disiens = assay: Antimicrobial activity in Prevotella disiens by CLSI agar dilution method in presence of clavulanate
Tissierella praeacuta = assay: Antimicrobial activity in Clostridium hastiforme by CLSI agar dilution method in presence of clavulanate
[9] = tested on: Peptoniphilus asaccharolyticus; assay: Antimicrobial activity in Peptoniphilus asaccharolyticus by CLSI agar dilution method in presence of clavulanate
Prevotella baroniae = assay: Antimicrobial activity in Prevotella baroniae by CLSI agar dilution method in presence of clavulanate; details: Segatella baroniae
Bacteroides stercoris = assay: Antimicrobial activity in Bacteroides stercoris by CLSI agar dilution method in presence of clavulanate
Porphyromonas gingivalis = assay: Antimicrobial activity in Porphyromonas gingivalis by CLSI agar dilution method in presence of clavulanate
[10] = tested on: Parabacteroides distasonis; assay: Antimicrobial activity in Bacteroides distasonis by CLSI agar dilution method in presence of clavulanate
Fusobacterium varium = assay: Antimicrobial activity in Fusobacterium varium by CLSI agar dilution method in presence of clavulanate
Finegoldia magna = assay: Antimicrobial activity in Finegoldia magna by CLSI agar dilution method in presence of clavulanate

Work on `CC1(C)S[C@@H]2[C@H](NC(=O)[C@H](N)c3ccc(O)cc3)C(=O)N2[C@H]1C(=O)O` [AMOXICILLIN] yielded an MIC50 (Fusobacterium mortiferum) of 1 µg/mL, an MIC90 (Fusobacterium mortiferum) of 32 µg/mL and an MIC50 (Eggerthella lenta) of 1 µg/mL. It also gave an MIC90 (Eggerthella lenta) of 1 µg/mL, an MIC50 (Clostridium sp.) of 0.5 µg/mL and an MIC90 (Clostridium sp.) of 0.5 µg/mL. It also gave an MIC (Cutibacterium acnes) of at most 0.125 µg/mL, an MIC50 (Cutibacterium acnes) of at most 0.125 µg/mL and an MIC90 (Cutibacterium acnes) of 0.25 µg/mL. It also gave an MIC (Parvimonas micra) of at most 0.125 µg/mL, an MIC50 (Parvimonas micra) of at most 0.125 µg/mL and an MIC90 (Parvimonas micra) of 0.5 µg/mL. It also gave an MIC (Prevotella veroralis) of at most 0.125 µg/mL, an MIC (Prevotella intermedia) of at most 0.125 µg/mL and an MIC50 (Prevotella intermedia) of at most 0.125 µg/mL. For the same compound, the MIC90 (Prevotella intermedia) was 0.5 µg/mL, the MIC (Thomasclavelia ramosa) was at most 0.125 µg/mL and the MIC50 [1] was 0.25 µg/mL. For the same compound, the MIC90 [1] was 2 µg/mL, the MIC50 (Clostridioides difficile) was 1 µg/mL and the MIC90 (Clostridioides difficile) was 2 µg/mL. The MIC (Hoylesella oralis) was at most 0.125 µg/mL, the MIC (Prevotella sp.) was at most 0.125 µg/mL and the MIC (Bacteroides ovatus) was 0.5 µg/mL. For the same compound, the MIC50 (Bacteroides ovatus) was 0.5 µg/mL, the MIC90 (Bacteroides ovatus) was 2 µg/mL and the MIC50 (Prevotella denticola) was 0.25 µg/mL. For the same compound, the MIC90 (Prevotella denticola) was 2 µg/mL, the MIC (Anaerococcus prevotii) was at most 0.125 µg/mL and the MIC [2] was 0.25 µg/mL. For the same compound, the MIC50 [3] was 0.25 µg/mL, the MIC90 [3] was 32 µg/mL and the MIC (Fusobacterium nucleatum) was at most 0.125 µg/mL. The MIC50 (Fusobacterium nucleatum) was at most 0.125 µg/mL, the MIC90 (Fusobacterium nucleatum) was at most 0.125 µg/mL and the MIC (Clostridium cadaveris) was at most 0.125 µg/mL. It also gave an MIC50 [4] of 1 µg/mL, an MIC90 [4] of 4 µg/mL and an MIC ([Clostridium] innocuum) of at most 0.125 µg/mL. It also gave an MIC50 (Phocaeicola vulgatus) of 1 µg/mL, an MIC90 (Phocaeicola vulgatus) of 8 µg/mL and an MIC50 (Lactobacillus) of 1 µg/mL. It also gave an MIC90 (Lactobacillus) of 1 µg/mL, an MIC50 (Prevotella bivia) of 0.5 µg/mL and an MIC90 (Prevotella bivia) of 4 µg/mL. It also gave an MIC (Prevotella salivae) of at most 0.125 µg/mL, an MIC (Anaerococcus tetradius) of at most 0.125 µg/mL and an MIC50 (Anaerococcus tetradius) of at most 0.125 µg/mL. It also gave an MIC90 (Anaerococcus tetradius) of at most 0.125 µg/mL, an MIC (Prevotella nigrescens) of at most 0.125 µg/mL and an MIC50 (Prevotella nigrescens) of at most 0.125 µg/mL. The MIC90 (Prevotella nigrescens) was 0.5 µg/mL, the MIC (Clostridium perfringens) was at most 0.125 µg/mL and the MIC50 (Clostridium perfringens) was at most 0.125 µg/mL. It also gave an MIC90 (Clostridium perfringens) of at most 0.125 µg/mL, an MIC50 (Bacteroides fragilis) of 0.5 µg/mL and an MIC90 (Bacteroides fragilis) of 2 µg/mL. It also gave an MIC (Clostridium butyricum) of 1 µg/mL, an MIC (Actinomyces) of at most 0.125 µg/mL and an MIC50 (Actinomyces) of 0.25 µg/mL. It also gave an MIC (Prevotella buccae) of at most 0.125 µg/mL, an MIC50 (Prevotella buccae) of at most 0.125 µg/mL and an MIC90 (Prevotella buccae) of 1 µg/mL. For the same compound, the MIC [5] was at most 0.125 µg/mL, the MIC [6] was at most 0.125 µg/mL and the MIC50 [6] was at most 0.125 µg/mL. For the same compound, the MIC (Bifidobacterium) was at most 0.125 µg/mL, the MIC50 (Bifidobacterium) was at most 0.125 µg/mL and the MIC90 (Bifidobacterium) was 0.25 µg/mL. The MIC (Hoylesella loescheii) was 0.25 µg/mL, the MIC [7] was 1 µg/mL and the MIC (Bacteroides uniformis) was 0.5 µg/mL. It also gave an MIC50 (Bacteroides uniformis) of 0.5 µg/mL, an MIC [8] of at most 0.125 µg/mL and an MIC (Clostridium tertium) of 0.5 µg/mL. The MIC50 (Clostridium tertium) was 0.5 µg/mL, the MIC (Prevotella bergensis) was 0.5 µg/mL and the MIC (Prevotella corporis) was at most 0.125 µg/mL. It also gave an MIC50 (Prevotella corporis) of at most 0.125 µg/mL, an MIC (Prevotella disiens) of at most 0.125 µg/mL and an MIC50 (Prevotella disiens) of 0.25 µg/mL. For the same compound, the MIC (Tissierella praeacuta) was 1 µg/mL, the MIC [9] was at most 0.125 µg/mL and the MIC50 [9] was at most 0.125 µg/mL. For the same compound, the MIC (Prevotella baroniae) was at most 0.125 µg/mL, the MIC (Bacteroides stercoris) was 0.5 µg/mL and the MIC50 (Bacteroides stercoris) was 1 µg/mL. The MIC (Porphyromonas gingivalis) was at most 0.125 µg/mL, the MIC50 [10] was 4 µg/mL and the MIC90 [10] was 16 µg/mL. The MIC50 (Fusobacterium varium) was 2 µg/mL, the MIC90 (Fusobacterium varium) was 2 µg/mL and the MIC50 (Finegoldia magna) was 0.25 µg/mL. The MIC90 (Finegoldia magna) was 0.25 µg/mL.

Reference: ChEMBL document CHEMBL1649156, “Antianaerobic activity of sulopenem compared to six other agents” (2009)
